The structures appear in SMILES notation.

This data set is described as follows: Partition coefficient (logP). Type of data set: physicochemical. To be noted: octanol/water.
Take `CCCCc1nc2nc[nH]c2c2nc(-c3ccc(Cl)cc3)nn12`: the logP is 4.78.
Molecule `CCCCCc1nc2nc[nH]c2c2nc(-c3ccccc3)nn12` returned a logP of 4.64.
The value for `CCCCc1nc2[nH]cnc2c2nc(-c3ccccc3)nn12` was 4.23; that for `CCCCc1nc2[nH]cnc2c2nc(-c3ccc(C(C)(C)C)cc3)nn12` was 5.93.
Regarding `CCCCc1nc2nc[nH]c2c2nc(-c3cccc(Cl)c3)nn12`, the logP was 4.78.
The molecule `CCCCc1nc2[nH]cnc2c2nc(-c3cccc(C)c3)nn12` had a logP of 4.71.
As for `CCCCc1nc2nc[nH]c2c2nc(-c3ccc(OCC)cc3)nn12`, the figure is 4.44; as for `CCCCc1nc2[nH]cnc2c2nc(Cc3ccccc3)nn12`, 4.33.
As for `CCCCc1nc2nc[nH]c2c2nc(-c3ccc(SC)cc3)nn12`, the figure is 4.66; as for `CCCCc1nc2nc[nH]c2c2nc(-c3ccc(Br)cc3)nn12`, 5.05; as for `CCCCc1nc2[nH]cnc2c2nc(-c3cccc(OC)c3)nn12`, 4.1.
The value for `CCCCc1nc2[nH]cnc2c2nc(-c3cccnc3)nn12` was 2.89; that for `CCCCCCc1nc2nc[nH]c2c2nc(-c3ccccc3)nn12` was 5.06; that for `CCCCc1nc2[nH]cnc2c2nc(C)nn12` was 2.57.
Consider `CCCCc1nc2nc[nH]c2c2nc(-c3ccc(-c4ccccc4)cc3)nn12`, for which the logP is 5.9.
On to `CCCCc1nc2nc[nH]c2c2nc(-c3ccc(O)cc3)nn12`, for which the logP turned out to be 3.84.
With `CCCCc1nc2[nH]cnc2c2nc(-c3ccc(N(C)C)cc3)nn12`, the logP is 4.51.
For `CCCc1nc2nc[nH]c2c2nc(-c3ccccc3)nn12`, the logP worked out at 3.81.
The value for `CCCCc1nc2[nH]cnc2c2nc(-c3ccc(C(F)(F)F)cc3)nn12` was 5.15; that for `CCCCc1nc2nc[nH]c2c2nc(-c3ccccc3Cl)nn12` was 4.78.
Molecule `CCCCc1nc2[nH]cnc2c2nc(-c3ccco3)nn12` came in with a logP of 2.84.
The value for `CCc1nc2[nH]cnc2c2nc(-c3ccccc3)nn12` was 3.39.
As to `c1ccc(-c2nc3c4nc[nH]c4nc(-c4ccccc4)n3n2)cc1`, the logP was 4.2.
The value for `CCCCc1nc2[nH]cnc2c2nc(-c3ccc(OC)cc3)nn12` was 4.1; that for `CCCCc1nc2[nH]cnc2c2nc(-c3ccc(C)cc3)nn12` was 4.71; that for `CCCCc1nc2nc[nH]c2c2nc(-c3ccc(F)cc3)nn12` was 4.38.
The value for `CCCCc1nc2[nH]cnc2c2nc(-c3cc(OC)c(OC)c(OC)c3)nn12` was 3.85.
As for `CCCCc1nc2[nH]cnc2c2nc(-c3ccc(OCCC)cc3)nn12`, the figure is 4.92; as for `Cc1nc2[nH]cnc2c2nc(-c3ccccc3)nn12`, 2.82.

These data come from ChEMBL document CHEMBL1146798, “QSAR of adenosine receptor antagonists. Part 3: Exploring physicochemical requirements for selective binding of 1,2,4-triazolo[5,1-i]purine derivatives with human adenosine A3 receptor subtype” (Bioorg Med Chem Lett, 2004).
